# Results from patent US9969716B2, “Indole derivatives as modulators of methyl modifying enzymes, compositions and uses thereof” (Constellation Pharmaceuticals, Inc., priority 2013, dated 2018).
# pEC50, pIC50: −log10 of the molar value. Like-named read-outs stand apart in the source and are kept apart here.
# Columns and labels:
# EZH2 = EZH2 (Homo sapiens, UniProt Q15910); test: EZH2 assay (rPRC2, 3H SAM methyl transfer to biotinylated oligonucleosomes, FlashPlate); assay type: biochemical
# Method: EZH2 Assay: Assays were carried out by mixing rPRC2 together with biotinylated oligonucleosome substrates in the presence of the radio-labeled enzyme co-factor, S-adenosyl-L-methionine (^3H SAM) (Perkin Elmer) and monitoring the enzymatically mediated transfer of tritiated methyl groups from ^3H SAM to histone lysine residues. The amount of resulting tritiated methyl histone product was measured by first capturing the biotinylated oligonucleosomes in streptavidin (SAV) coated FlashPlates (Perkin Elmer), followed by a wash step to remove un-reacted ^3H SAM, and then counting on a TopCount NXT 384 well plate scintillation counter (Perkin Elmer). The final assay conditions for EZH2 were as follows: 50 mM Tris Buffer pH 8.5, 1 mM DTT, 69 μM Brij-35 detergent, 5.0 mM MgCl2, 0.1 mg/mL BSA, 0.2 μM ^3H SAM, 0.2 μM biotinylated oligonucleosomes, 3.6 μM H3K27me3 peptide and 2 nM EZH2.
# A 12.5 μL volume of the HMT enzyme, H3K27me3 peptide and oligonucleosome substrate in assay buffer was added to each well of the assay plate using a Multidrop Combi (ThermoFisher). Compounds were pre-incubated with the enzyme for 20 min, followed by initiation of the methyltransferase reaction by addition of 12.5 μL of ^3H SAM in assay buffer (final volume=25 μL). The final concentrations of compounds ranged from a top default concentration of 80 μM down to 0.16 μM in ten 2-fold dilution steps. Reactions were carried out for 60 minutes and quenched with 20 μL per well of 1.96 mM SAH, 50 mM Tris pH 8.5, 200 mM EDTA. Stopped reactions were transferred to SAV coated Flashplates (Perkin Elmer), incubated for 120 min, washed with a plate washer, and then read on the TopCount NXT (1.0 min/well) to measure the amount of methyl histone product formed during the reaction.
# [1] = tested on: H3K27me3 mark in HeLa cells; test: H3K27me3 Alpha Hela Assay (AlphaLISA); assay type: cell-based; conditions: Homo sapiens, 72 hrs, read-out: EZH2_Cell_H3K27me3_Alpha_HeLa (EC50_K27me3)
# Method: Ten different doses of each test compound (in a series of 3-fold dilutions) were plated in duplicate 384-well tissue culture treated plates (Catalog #781080; Greiner Bio One; Monroe, N.C.). Hela cells grown in culture were trypsinized and counted using a Countess® cell counter (Catalog # C10281; Life Technologies, Grand Island, N.Y.). Cell were diluted to 67,000 cells per mL in 10% DMEM (Catalog #10569-010 Life Technologies, Grand Island, N.Y.) and 15 μL (1,000 cells) were plated into each well using the Biotek MicroFlo™ Select Dispenser (BioTek Instruments, Inc. Vermont, USA),) of the 384-well plate. Plates were incubated at 37° C./5% CO2 for 72 hrs. One of the duplicate plates was processed for HeLa assay and the other for viability.
# To the plate processed for AlphaLISA was added 5 μL per well Cell-Histone Lysis buffer (1λ) (Catalog # AL009F1 Perkin Elmer; Waltham, Mass.) and the plate was incubated at RT for 30 minutes on a plate shaker with low speed (Model#4625-Q Thermo Scientific; Waltham, Mass.). Then, 10 μL per well Histone Extraction buffer (catalog # AL009F2; Perkin Elmer; Waltham, Mass.) was added and the plate further incubated at RT for 20 min on plate shaker with low speed. To each well was then added 10 μL per well of a 5× mix of anti-K27me3 acceptor beads plus Biotinylated anti-Histone H3 (C-ter) Antibody (diluted to 3 nM final) (Catalog #AL118 Perkin Elmer; Waltham, Mass.). Dilution of the acceptor beads and then anti-Histone H3 was with 1× Histone Detection buffer (Catalog # AL009F3 Perkin Elmer; Waltham, Mass.) which was produced diluted from the 10× stock provided. The plate was sealed with an aluminum plate sealer and incubated at 23° C. for 60 min. We then added 10 μL 5× solution of Streptavidin Donor beads (Catalog #6760002 Perkin Elmer; Waltham, Mass.) (20 μg/mL final in 1× Histone Detection Buffer), sealed the plate with Aluminum plate sealer and incubated at 23° C. for 30 min. The plates were then read using an EnVision-Alpha Reader (model #2104 Perkin Elmer; Waltham, Mass.).
# Data from both assays was analyzed using Assay Assistant (Constellation Pharmaceuticals In-house product) and Activity Base (IDBS Ltd, Surrey, UK) template. Data files were imported to Assay Assistant and assay conditions were specified. A unique Analysis ID was created and the data files exported to Activity Base. An analysis template was created on Activity Base to measure dose-dependent inhibition of H3K27me3 mark and cell viability respectively. Readout of DMSO wells were used to normalize the data. Resulting curves were fitted using Activity base software Model 205 (IDBS Ltd, Surrey, UK). The data was checked for quality, validated and integrated in excel format using SARview (IDBS Ltd, Surrey, UK).
# Sequence of EZH2 (Q15910 whole entry): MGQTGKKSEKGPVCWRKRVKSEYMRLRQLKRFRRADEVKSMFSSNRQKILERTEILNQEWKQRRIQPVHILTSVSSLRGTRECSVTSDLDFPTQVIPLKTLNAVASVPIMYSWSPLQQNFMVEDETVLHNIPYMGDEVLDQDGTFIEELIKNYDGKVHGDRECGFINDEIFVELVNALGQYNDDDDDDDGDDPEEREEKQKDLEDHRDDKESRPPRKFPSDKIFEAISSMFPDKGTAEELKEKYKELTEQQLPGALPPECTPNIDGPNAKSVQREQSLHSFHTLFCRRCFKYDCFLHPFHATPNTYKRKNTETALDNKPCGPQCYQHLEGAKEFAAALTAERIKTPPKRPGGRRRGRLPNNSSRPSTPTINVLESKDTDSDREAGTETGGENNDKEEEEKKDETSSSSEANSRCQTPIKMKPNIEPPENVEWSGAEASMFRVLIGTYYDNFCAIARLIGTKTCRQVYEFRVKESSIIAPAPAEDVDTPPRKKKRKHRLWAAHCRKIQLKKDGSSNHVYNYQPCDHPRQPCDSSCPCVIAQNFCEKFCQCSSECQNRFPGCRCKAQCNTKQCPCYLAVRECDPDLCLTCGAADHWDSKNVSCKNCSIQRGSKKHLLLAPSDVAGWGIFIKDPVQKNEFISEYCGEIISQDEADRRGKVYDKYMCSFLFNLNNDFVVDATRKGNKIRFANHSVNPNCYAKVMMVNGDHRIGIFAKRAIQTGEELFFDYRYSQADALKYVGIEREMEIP
# Sequence of EZH2 (O75530 whole entry partner): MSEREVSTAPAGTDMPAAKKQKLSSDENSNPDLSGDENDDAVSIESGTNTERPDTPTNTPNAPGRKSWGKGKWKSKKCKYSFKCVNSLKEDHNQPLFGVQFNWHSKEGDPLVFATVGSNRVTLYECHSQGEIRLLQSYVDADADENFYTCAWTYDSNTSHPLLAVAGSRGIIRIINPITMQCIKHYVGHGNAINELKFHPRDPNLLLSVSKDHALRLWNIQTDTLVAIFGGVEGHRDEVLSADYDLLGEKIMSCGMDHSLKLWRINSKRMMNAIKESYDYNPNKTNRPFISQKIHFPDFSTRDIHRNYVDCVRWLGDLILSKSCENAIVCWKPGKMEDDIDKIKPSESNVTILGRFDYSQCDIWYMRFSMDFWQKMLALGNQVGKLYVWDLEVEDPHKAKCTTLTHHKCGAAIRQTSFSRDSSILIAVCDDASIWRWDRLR
# Sequence of EZH2 (Q15022 whole entry partner): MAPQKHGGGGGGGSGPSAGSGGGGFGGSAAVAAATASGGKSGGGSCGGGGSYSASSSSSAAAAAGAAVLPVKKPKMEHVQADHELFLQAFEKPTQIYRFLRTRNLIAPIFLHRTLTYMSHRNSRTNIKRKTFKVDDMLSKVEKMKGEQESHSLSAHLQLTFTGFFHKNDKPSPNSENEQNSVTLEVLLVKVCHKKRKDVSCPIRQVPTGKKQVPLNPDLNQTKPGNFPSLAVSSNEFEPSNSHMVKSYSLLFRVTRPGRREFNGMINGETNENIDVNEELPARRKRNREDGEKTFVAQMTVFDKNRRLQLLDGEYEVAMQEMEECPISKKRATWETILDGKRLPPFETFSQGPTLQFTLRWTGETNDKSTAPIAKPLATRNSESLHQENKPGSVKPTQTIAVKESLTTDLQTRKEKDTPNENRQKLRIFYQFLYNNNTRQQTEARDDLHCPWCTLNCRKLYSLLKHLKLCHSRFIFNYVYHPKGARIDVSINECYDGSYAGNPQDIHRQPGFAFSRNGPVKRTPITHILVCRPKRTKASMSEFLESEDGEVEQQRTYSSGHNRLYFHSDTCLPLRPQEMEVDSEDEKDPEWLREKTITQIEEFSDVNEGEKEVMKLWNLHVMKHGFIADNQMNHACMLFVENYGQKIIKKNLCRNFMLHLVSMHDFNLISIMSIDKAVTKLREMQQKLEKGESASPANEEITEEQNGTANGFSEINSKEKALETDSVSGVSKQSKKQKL
SMILES,pIC50 (EZH2),pEC50 [1],"pIC50 (EZH2; 2 nM EZH2, 0.2 μM 3H SAM, 0.2 μM biotinylated oligonucleosomes, 3.6 μM H3K27me3 peptide, 60 min, read-out: EZH2_nuc_BSA_Brij_1.5 (IC50))"
COc1cc(C)[nH]c(=O)c1CNC(=O)c1c(C)n([C@H](C)C2CCN(C(=O)C3CCC(C)CC3)CC2)c2ccccc12 (mixture of isomers) [Compound 234],> 7.00,> 6.40,–
CCC(F)(F)CN1CCC([C@@H](C)n2c(C)c(C(=O)NCc3c(OC)cc(C)[nH]c3=O)c3ccccc32)CC1 [Compound 108],> 7.00,> 6.40,–
COc1cc(C)[nH]c(=O)c1CNC(=O)c1c(C)n([C@H](C)C2CCN(C(=O)C(C)(C)C(F)(F)F)CC2)c2ccccc12 [Compound 114],> 7.00,> 6.40,–
COC(C)(C)CN1CCC([C@@H](C)n2c(C)c(C(=O)NCc3c(C)cc(C)[nH]c3=O)c3ccccc32)CC1 [Compound 127],> 7.00,> 6.40,–
COc1cc(C)[nH]c(=O)c1CNC(=O)c1c(C)n([C@H](C)C2CCN(CC(C)(C)OC)CC2)c2ccccc12 [Compound 128],–,> 6.40,–
CCCc1cc(C)[nH]c(=O)c1CNC(=O)c1c(C)n([C@H](C)C2CCN(S(=O)(=O)CC)CC2)c2ccccc12 [Compound 132],–,> 6.40,–
COc1cc(C)[nH]c(=O)c1CNC(=O)c1c(C)n([C@H](C)C2CCN(CC3(C(F)(F)F)CCC3)CC2)c2ccccc12 [Compound 135],–,> 6.40,–
CCS(=O)(=O)N1CCC([C@@H](C)n2c(C)c(C(=O)NCc3c(OCC(F)(F)F)cc(C)[nH]c3=O)c3ccccc32)CC1 [Compound 163],–,5.70 to 6.40,–
COc1cc(C)[nH]c(=O)c1CNC(=O)c1c(C)n([C@H](C)C2CCN(CC(C)=O)CC2)c2ccccc12 [Compound 169],–,–,> 7.00
COc1cc(C)[nH]c(=O)c1CNC(=O)c1c(C)n([C@H](C)C2CCN(CC(F)(F)CO)CC2)c2ccccc12 [Compound 175],> 7.00,5.70 to 6.40,–
COc1cc(C)[nH]c(=O)c1CNC(=O)c1c(C)n([C@H](C)C2CCN(C(C)C(F)F)CC2)c2ccccc12 (stereo partly drawn) [Compound 177],> 7.00,> 6.40,–
COc1cc(C)[nH]c(=O)c1CNC(=O)c1c(C)n([C@H](C)C2CCN(CC3CCO3)CC2)c2ccccc12 (stereo partly drawn) [Compound 179],> 7.00,5.70 to 6.40,–
COc1cc(C)[nH]c(=O)c1CNC(=O)c1c(C)n([C@H](C)C2CCN(CC3COC3)CC2)c2ccccc12 [Compound 180],> 7.00,< 5.70,–
COCC(F)(F)CN1CCC([C@@H](C)n2c(C)c(C(=O)NCc3c(OC)cc(C)[nH]c3=O)c3ccccc32)CC1 [Compound 181],> 7.00,> 6.40,–
COc1cc(C)[nH]c(=O)c1CNC(=O)c1c(C)n([C@H](C)C2CCN(CC(C)(C)C#N)CC2)c2ccccc12 [Compound 185],> 7.00,5.70 to 6.40,–
COc1cc(C)[nH]c(=O)c1CNC(=O)c1c(C)n([C@H](C)C2CCN(C(=O)CC#N)CC2)c2ccccc12 [Compound 186],> 7.00,5.70 to 6.40,–
COc1cc(C)[nH]c(=O)c1CNC(=O)c1c(C)n([C@H](C)C2CCN(C(=O)C3(C)COC3)CC2)c2ccccc12 [Compound 189],> 7.00,5.70 to 6.40,–
COc1cc(C)[nH]c(=O)c1CNC(=O)c1c(C)n([C@H](C)C2CCN(C(=O)C3(C)CC3)CC2)c2ccccc12 [Compound 190],> 7.00,5.70 to 6.40,–
COc1cc(C)[nH]c(=O)c1CNC(=O)c1c(C)n([C@H](C)C2CCN(C(=O)C3(C)CCCC3)CC2)c2ccccc12 [Compound 191],> 7.00,5.70 to 6.40,–
COc1cc(C)[nH]c(=O)c1CNC(=O)c1c(C)n([C@H](C)C2CCN(C(=O)C3(C)CN(C)C3)CC2)c2ccccc12 [Compound 192],> 7.00,< 5.70,–
COc1cc(C)[nH]c(=O)c1CNC(=O)c1c(C)n([C@H](C)C2CCN(CCC#N)CC2)c2ccccc12 [Compound 206],> 7.00,> 6.40,–
COc1cc(C)[nH]c(=O)c1CNC(=O)c1c(C)n([C@H](C)C2CCN(CCS(C)(=O)=O)CC2)c2ccccc12 [Compound 207],> 7.00,< 5.70,–
